# Data reported in paper PMC11083148, “Structure–Activity Relationship Studies on Highly Functionalized Pyrazole Hydrazones and Amides as Antiproliferative and Antioxidant Agents” (International Journal of Molecular Sciences, 2024).
# How the values were obtained:
# Type in all cases: cell-based
# [1] = test system: A549; experiment: MTT assay, antiproliferative activity; conditions: Homo sapiens, 48h, read-out: Mean Growth Percentage
# Procedure, shortened: (§1)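 Cells plated 16 h, then exposed to compounds at 10 μM final for 48 h at 37 °C, 5% CO2. MTT added for 4 h, formazan dissolved in DMSO, absorbance read at 570 nm; values as percent of DMSO-only control, mean of three experiments in six replicates.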
# [2] = test system: Hep-G2; experiment: MTT assay, antiproliferative activity; conditions: Homo sapiens, HepG2, 48h
# Procedure, shortened: as §1
# [3] = test system: MDA-MB231; experiment: MTT assay, antiproliferative activity; conditions: Homo sapiens, MDA-MB-231, 48h
# Procedure, shortened: as §1
# [4] = test system: SK-BR3; experiment: MTT assay, antiproliferative activity; conditions: Homo sapiens, SK-BR-3, 48h
# Procedure, shortened: as §1
# [5] = test system: HeLa; experiment: MTT assay, antiproliferative activity; conditions: Homo sapiens; for activity at 10 µM: 48h, read-out: Mean Growth Percentage
# [6] = test system: MCF7; experiment: MTT assay, antiproliferative activity; conditions: Homo sapiens; for mean growth percentage (cell growth remaining vs control) at 10 µM: 48h
# [7] = test system: SKMEL28; experiment: MTT assay, antiproliferative activity; conditions: Homo sapiens; for Mean growth percentage at 10 µM: SK-MEL-28, 10 µM, 48h
# [8] = test system: IGROV1; experiment: NCI screening, Ovarian Cancer; conditions: 10 µM
# Procedure: (§2) In addition, 11a and 17 (representative compounds of the acylhydrazone and amide series) were selected by the National Cancer Institute (NCI, Germantown, MD, USA) and tested at a fixed concentration of 10 µM against a panel of fifty-nine different cancer cell lines, including highly metastatic tumors (Table 2).
# [9] = test system: NCI/ADR-RES; experiment: NCI screening, Ovarian Cancer; conditions: 10 µM
# Procedure: as §2
# [10] = test system: OVCAR-4; experiment: NCI screening, Ovarian Cancer; conditions: OVCAR-4, Ovarian Cancer; 10 µM
# Procedure: as §2
# [11] = test system: OVCAR-5; experiment: NCI screening, Ovarian Cancer; conditions: OVCAR-5, Ovarian Cancer; 10 µM
# Procedure: as §2
# [12] = test system: OVCAR-8; experiment: NCI screening, Ovarian Cancer; conditions: OVCAR-8, Ovarian Cancer; 10 µM
# Procedure: as §2
# [13] = test system: SK-OV-3; experiment: NCI screening, Ovarian Cancer; conditions: SK-OV-3, Ovarian Cancer; 10 µM
# Procedure: as §2
# [14] = test system: 786-0; experiment: NCI screening, Renal Cancer; conditions: 786-0, Renal Cancer; 10 µM
# Procedure: as §2
# [15] = test system: A498; experiment: NCI screening, Renal Cancer; conditions: 10 µM
# Procedure: as §2
# [16] = test system: ACHN; experiment: NCI screening, Renal Cancer; conditions: 10 µM
# Procedure: as §2
# [17] = test system: CAKI-1; experiment: NCI screening, Renal Cancer; conditions: CAKI-1, Renal Cancer; 10 µM
# Procedure: as §2
# [18] = test system: RXF 393; experiment: NCI screening, Renal Cancer; conditions: RXF 393, Renal Cancer; 10 µM
# Procedure: as §2
# [19] = test system: SN12C; experiment: NCI screening, Renal Cancer; conditions: 10 µM
# Procedure: as §2
# [20] = test system: TK-10; experiment: NCI screening, Renal Cancer; conditions: TK-10, Renal Cancer; 10 µM
# Procedure: as §2
# [21] = test system: UO-31; experiment: NCI screening, Renal Cancer; conditions: UO-31, Renal Cancer; 10 µM
# Procedure: as §2
# [22] = test system: BT-549; experiment: NCI screening, Breast Cancer; conditions: BT-549, Breast Cancer; 10 µM
# Procedure: as §2
# [23] = test system: MDA-MB-231/ATCC; experiment: NCI screening, Breast Cancer; conditions: 10 µM
# Procedure: as §2
# [24] = test system: T-47D; experiment: NCI screening, Breast Cancer; conditions: 10 µM
# Procedure: as §2
# [25] = test system: MALME-3M; experiment: NCI screening, Melanoma; conditions: 10 µM
# Procedure: as §2
# [26] = test system: SK-MEL-28; experiment: NCI screening, Melanoma; conditions: SK-MEL-28, Melanoma; 10 µM
# Procedure: as §2
# [27] = test system: SK-MEL-2; experiment: NCI screening, Melanoma; conditions: SK-MEL-2, Melanoma; 10 µM
# Procedure: as §2
# [28] = test system: SK-MEL-5; experiment: NCI screening, Melanoma; conditions: SK-MEL-5, Melanoma; 10 µM
# Procedure: as §2
# [29] = test system: UACC-257; experiment: NCI screening, Melanoma; conditions: UACC-257, Melanoma; 10 µM
# Procedure: as §2
# [30] = test system: UACC-62; experiment: NCI screening, Melanoma; conditions: UACC-62, Melanoma; 10 µM
# Procedure: as §2
SMILES,activity at 10 µM [1],Mean growth percentage at 10 µM [2],Mean growth percentage at 10 µM [3],Mean growth percentage at 10 µM [4],activity at 10 µM [5],mean growth percentage (cell growth remaining vs control) at 10 µM [6],Mean growth percentage at 10 µM [7],Growth Percentage (%) [8],Growth Percentage (%) [9],Growth Percentage (%) [10],Growth Percentage (%) [11],Growth Percentage (%) [12],Growth Percentage (%) [13],Growth Percentage (%) [14],Growth Percentage (%) [15],Growth Percentage (%) [16],Growth Percentage (%) [17],Growth Percentage (%) [18],Growth Percentage (%) [19],Growth Percentage (%) [20],other results
"COc1ccc(/C=N/NC(=O)c2c(N)nn(C)c2Nc2ccccc2)cc1 [11a, (E)-3-amino-N′-(4-methoxybenzylidene)-1-methyl-5-(phenylamino)-1H-pyrazole-4-carbohydrazide]",60.8%,75%,72%,57%,25%,33.6%,49.4%,39.64%,32.98%,87.03%,76.88%,70.80%,49.64%,57.97%,33.08%,49.99%,39.84%,37.26%,57.59%,89.16%,"IC50 ([5]; MTT): 4.63 ± 0.41 µM; IC50 ([6]; MTT): 6.9 ± 0.34 µM; IC50 ([7]; SK-MEL-28, MTT): 9.45 ± 0.66 µM; Growth Percentage (%) [21]: 51.18%; Growth Percentage (%) [22]: 14.04%; Growth Percentage (%) [23]: 65.06%; Growth Percentage (%) [24]: 42.38%; Growth Percentage (%) [25]: 44.75%; Growth Percentage (%) [26]: 57.48%; Growth Percentage (%) [27]: 70.70%; Growth Percentage (%) [28]: 57.21%; Growth Percentage (%) [29]: 56.35%; Growth Percentage (%) [30]: 23.72%"
"CCOC(=O)c1c(NC(=O)C2CC2)nn(C)c1Nc1ccccc1 [compound 17, Ethyl 3-(cyclopropanecarboxamido)-1-methyl-5-(phenylamino)-1H-pyrazole-4-carboxylate]",75.8%,103%,127%,106%,109%,92.8%,85.9%,100.75%,103.29%,99.35%,99.49%,101.92%,99.73%,101.26%,92.87%,104.77%,86.39%,101.07%,104.27%,107.78%,Growth Percentage (%) [21]: 87.45%; Growth Percentage (%) [22]: 118.46%; Growth Percentage (%) [23]: 100.37%; Growth Percentage (%) [24]: 93.07%; Growth Percentage (%) [25]: 98.67%; Growth Percentage (%) [26]: 107.16%; Growth Percentage (%) [27]: 100.69%; Growth Percentage (%) [28]: 99.45%; Growth Percentage (%) [29]: 99.58%; Growth Percentage (%) [30]: 93.55%
